This passage reports IC50 results from patent US8188102B2, “Amide derivative for inhibiting the growth of cancer cells” (Hanmi Holdings Co., Ltd., priority 2007, dated 2012).

In assay [1] the test system is A431 skin cancer cell line. Description: Cancer cell growth inhibition, A431 (SRB). The settings on record: Homo sapiens, A-431, 72 h, read-out: ID50 (nM) A431.
Assay [2] relates to SK-Br3 breast cancer cell line. Description: Cancer cell growth inhibition, SK-Br3 (SRB). As to conditions: Homo sapiens, SK-BR-3, 72 h, read-out: ID50 (nM) SK-Br3.

`C=CC(=O)N1CCC(Oc2cc3c(Nc4ccc(O)cc4Cl)ncnc3cc2OC)CC1` [Example 52, 1-(4-(4-(2-chloro-4-hydroxyphenylamino)-7-methoxyquinazolin-6-yloxy)piperidin-1-yl)pro-2-pen-1-one]: the figures for the IC50 in assay [1] and in assay [2] were 176 nM and 30 nM, respectively.

In the case of `C=CC(=O)N1CCC(Oc2cc3c(Nc4ccc(Cl)cc4O)ncnc3cc2OC)CC1` [Example 53, 1-(4-(4-(4-chloro-2-hydroxyphenylamino)-7-methoxyquinazolin-6-yloxy)piperidin-1-yl)pro-2-pen-1-one], the IC50 turned out to be 32 nM in assay [1] and 21 nM in assay [2].

For the compound `C=CC(=O)N1CCC(Oc2cc3c(Nc4ccc(OCc5cccc(F)c5)c(Cl)c4)ncnc3cc2OC)CC1` [Example 54, 1-(4-(4-(3-chloro-4-(3-fluorobenzyloxy)phenylamino)-7-methoxyquinazolin-6-yloxy)piperidin-1-yl)pro-2-pen-1-one], the IC50 in assay [1] came to 10 nM; in assay [2] it was 2 nM.

Take `C=CC(=O)N1CCC(Oc2cc3c(Nc4cccc(C#N)c4)ncnc3cc2OC)CC1` [Example 56, 3-(6-(1-acryloylpiperidin-4-yloxy)-7-methoxyquinazolin-4-ylamino)benzonitrile]: the IC50 in assay [1] amounted to 3.7 nM; in assay [2], 0.7 nM.

In the case of `C=CC(=O)N1CCC(Oc2cc3c(Nc4cccc(Cl)c4OC)ncnc3cc2OC)CC1` [Example 59, 1-(4-(4-(3-chloro-2-methoxyphenylamino)-7-methoxyquinazolin-6-yloxy)piperidin-1-yl)pro-2-pen-1-one], the IC50 was determined as 3 nM in assay [1] and 9 nM in assay [2].

For `C=CC(=O)N1CCC(Oc2cc3c(Nc4ccc(Cl)c(C)c4)ncnc3cc2OC)CC1` [Example 60, 1-(4-(4-(4-chloro-3-methylphenylamino)-7-methoxyquinazolin-6-yloxy)piperidin-1-yl)pro-2-pen-1-one], the IC50 in assay [1] is 93 nM; in assay [2], 261 nM.

`C=CC(=O)N1CCC(Oc2cc3c(Nc4ccc(Br)c(F)c4)ncnc3cc2OC)CC1` [Example 62, 1-(4-(4-(4-bromo-3-fluorophenylamino)-7-methoxyquinazolin-6-yloxy)piperidin-1-yl)pro-2-pen-1-one]: the IC50 is 7 nM in assay [1] and 6 nM in assay [2].

For the compound `C=CC(=O)N1CCC(Oc2cc3c(Nc4cccc(Cl)c4C)ncnc3cc2OC)CC1` [Example 63, 1-(4-(4-(3-chloro-2-methylphenylamino)-7-methoxyquinazolin-6-yloxy)piperidin-1-yl)pro-2-pen-1-one], the IC50 was 9 nM in assay [1] and 1 nM in assay [2].

Turning to `C=CC(=O)N1CCC(Oc2cc3c(Nc4cccc(N(C)C)c4)ncnc3cc2OC)CC1` [Example 64, 1-(4-(4-(3-(dimethylamino)phenylamino)-7-methoxyquinazolin-6-yloxy)piperidin-1-yl)pro-2-pen-1-one], the IC50 in assay [1] came out at 142 nM; in assay [2], 11 nM.

On to `C=CC(=O)N1CCC(Oc2cc3c(Nc4cccc(C(F)(F)F)c4F)ncnc3cc2OC)CC1` [Example 65, 1-(4-(4-(2-fluoro-3-(trifluoromethyl)phenylamino)-7-methoxyquinazolin-6-yloxy)piperidin-1-yl)pro-2-pen-1-one], for which the results for the IC50 in assay [1] and in assay [2] were 11 nM and 15 nM, respectively.

For `C=CC(=O)N1CCC(Oc2cc3c(Nc4ccc(F)c(C#N)c4)ncnc3cc2OC)CC1` [Example 66, 5-(6-(1-acryloylpiperidin-4-yloxy)-7-methoxyquinazolin-4-ylamino)-2-fluorobenzonitrile], the IC50 in assay [1] is 8 nM; in assay [2], 1 nM.

Consider `C=CC(=O)N1CCC(Oc2cc3c(Nc4ccc(Cl)c(C#N)c4)ncnc3cc2OC)CC1` [Example 67, 5-(6-(1-acryloylpiperidin-4-yloxy)-7-methoxyquinazolin-4-ylamino)-2-chlorobenzonitrile], for which the values for the IC50 in assay [1] and in assay [2] were 35 nM and 10 nM, respectively.

Regarding `C=CC(=O)N1CCC(Oc2cc3c(Nc4cccc(SC)c4)ncnc3cc2OC)CC1` [Example 68, 1-(4-(7-methoxy-4-(3-(methylthio)phenylamino)quinazolin-6-yloxy)piperidin-1-yl)pro-2-pen-1-one], the IC50 in assay [1] came to 305 nM; in assay [2], 10 nM.

Consider `C=CC(=O)N1CCC(Oc2cc3c(Nc4ccccc4Cl)ncnc3cc2OC)CC1` [Example 69, 1-(4-(4-(2-chlorophenylamino)-7-methoxyquinazolin-6-yloxy)piperidin-1-yl)pro-2-pen-1-one], for which the IC50 in assay [1] stood at 65 nM; in assay [2], 1.7 nM.

For the compound `C=CC(=O)N1CCC(Oc2cc3c(Nc4ccc(Cl)cc4)ncnc3cc2OC)CC1` [Example 70, 1-(4-(4-(4-chlorophenylamino)-7-methoxyquinazolin-6-yloxy)piperidin-1-yl)pro-2-pen-1-one], the values for the IC50 in assay [1] and in assay [2] were 4.6 nM and 2.1 nM, respectively.

As to `C=CC(=O)N1CCC(Oc2cc3c(NCc4cccc(Cl)c4)ncnc3cc2OC)CC1` [Example 72, 1-(4-(4-(3-chlorobenzylamino)-7-methoxyquinazolin-6-yloxy)piperidin-1-yl)pro-2-pen-1-one], the values for the IC50 in assay [1] and in assay [2] were 61 nM and 20 nM, respectively.

With `C=CC(=O)N1CCC(Oc2cc3c(Nc4cccc([N+](=O)[O-])c4)ncnc3cc2OC)CC1` [Example 74, 1-(4-(7-methoxy-4-(3-nitrophenylamino)quinazolin-6-yloxy)piperidin-1-yl)pro-2-pen-1-one], the IC50 is 11 nM in assay [1] and 1 nM in assay [2].

Turning to `C=CC(=O)Nc1cccc(Nc2ncnc3cc(OC)c(OC4CCN(C(=O)C=C)CC4)cc23)c1` [Example 75, N-(3-(6-(1-acryloylpiperidin-4-yloxy)-7-methoxyquinazolin-4-ylamino)phenyl)acrylamide], the IC50 came to 400 nM in assay [1] and 50 nM in assay [2].

For the compound `C=CC(=O)N1CCC(Oc2cc3c(Nc4cccc(S)c4)ncnc3cc2OC)CC1` [Example 76, 1-(4-(4-(3-mercaptophenylamino)-7-methoxyquinazolin-6-yloxy)piperidin-1-yl)pro-2-pen-1-one], the values for the IC50 in assay [1] and in assay [2] were 300 nM and 100 nM, respectively.

In the case of `C=CC(=O)N1CCC(Oc2cc3c(Nc4cccc(CCl)c4)ncnc3cc2OC)CC1` [Example 77, 1-(4-(4-(3-(chloromethyl)phenylamino)-7-methoxyquinazolin-6-yloxy)piperidin-1-yl)pro-2-pen-1-one], the IC50 in assay [1] stood at 26 nM; in assay [2], 7 nM.

With `C=CC(=O)N1CCC(Oc2cc3c(Nc4ccc(O)c(Cl)c4)ncnc3cc2OC)CC1` [Example 78, 1-(4-(4-(3-chloro-4-hydroxyphenylamino)-7-methoxyquinazolin-6-yloxy)piperidin-1-yl)pro-2-pen-1-one], the IC50 is 109 nM in assay [1] and 65 nM in assay [2].

Turning to `C=CC(=O)N1CCC(Oc2cc3c(Nc4ccc(O)c(F)c4)ncnc3cc2OC)CC1` [Example 79, 1-(4-(4-(3-fluoro-4-hydroxyphenylamino)-7-methoxyquinazolin-6-yloxy)piperidin-1-yl)prop-2-en-1-one], the values for the IC50 in assay [1] and in assay [2] were 129 nM and 37 nM, respectively.

As to `CC#CC(=O)N1CCC(Oc2cc3c(Nc4ccc(F)c(Cl)c4F)ncnc3cc2OC)CC1` [Example 80, 1-(4-(4-(3-chloro-2,4-difluorophenylamino)-7-methoxyquinazolin-6-yloxy)piperidin-1-yl)but-2-yn-1-one], the IC50 worked out at 190 nM in assay [1] and 268 nM in assay [2].

`COc1cc2ncnc(Nc3ccc(F)c(Cl)c3F)c2cc1OC1CCN(C(=O)C=C(C)C)CC1` [Example 81, 1-(4-(4-(3-chloro-2,4-difluorophenylamino)-7-methoxyquinazolin-6-yloxy)piperidin-1-yl)-3-methylbut-2-en-1-one]: the IC50 in assay [1] turned out to be 38 nM; in assay [2], 141 nM.

Take `CNC(=O)/C=C/C(=O)N1CCC(Oc2cc3c(Nc4ccc(F)c(Cl)c4F)ncnc3cc2OC)CC1` [Example 82, (E)-4-(4-(4-(3-chloro-2,4-difluorophenylamino)-7-methoxyquinazolin-6-yloxy)piperidin-1-yl)-N-methyl-4-oxobut-2-enamide]: the IC50 in assay [1] was 48 nM; in assay [2], 134 nM.

Consider `COC(=O)/C=C\C(=O)N1CCC(Oc2cc3c(Nc4ccc(F)c(Cl)c4F)ncnc3cc2OC)CC1` [Example 83, (Z)-methyl 4-(4-(4-(3-chloro-2,4-difluorophenylamino)-7-methoxyquinazolin-6-yloxy)piperidin-1-yl)-4-oxobut-2-enoate], for which the values for the IC50 in assay [1] and in assay [2] were 9 nM and 23 nM, respectively.

Take `COC(=O)/C=C\C(=O)N1CCC(Oc2cc3c(Nc4ccc(Cl)c(Cl)c4F)ncnc3cc2OC)CC1` [Example 84, (Z)-methyl 4-(4-(4-(3,4-dichloro-2-fluorophenylamino)-7-methoxyquinazolin-6-yloxy)piperidin-1-yl)-4-oxobut-2-enoate]: the IC50 in assay [1] was found to be 8 nM; in assay [2] it was 21 nM.

Regarding `COc1cc2ncnc(Nc3ccc(F)c(Cl)c3F)c2cc1OC1CCN(C(=O)/C=C\C(=O)O)CC1` [Example 85, (Z)-4-(4-(4-(3-chloro-2,4-difluorophenylamino)-7-methoxyquinazolin-6-yloxy)piperidin-1-yl)-4-oxobut-2-enoic acid], the results for the IC50 in assay [1] and in assay [2] were 41 nM and 395 nM, respectively.

In the case of `COc1cc2ncnc(Nc3ccc(Cl)c(Cl)c3F)c2cc1OC1CCN(C(=O)/C=C\C(=O)O)CC1` [Example 86, (Z)-4-(4-(4-(3,4-dichloro-2-fluorophenylamino)-7-methoxyquinazolin-6-yloxy)piperidin-1-yl)-4-oxobut-2-enoic acid], the results for the IC50 in assay [1] and in assay [2] were 322 nM and greater than 1000 nM, respectively.

As to `COc1cc2ncnc(Nc3ccc(Cl)c(Cl)c3F)c2cc1OC1CCN(C(=O)/C=C/C(=O)O)CC1` [Example 87, (E)-4-(4-(4-(3,4-dichloro-2-fluorophenylamino)-7-methoxyquinazolin-6-yloxy)piperidin-1-yl)-4-oxobut-2-enoic acid], the IC50 in assay [1] is 516 nM; in assay [2], 469 nM.
